Measured values: publication PMC11247486, “Improving the In Vivo Stability of [^52Mn]Mn(II) Complexes with 18-Membered Macrocyclic Chelators for PET Imaging” (Journal of Medicinal Chemistry, 2024)
Like-named read-outs stand apart in the source and are kept apart here.

Key:
[1] = cited from earlier work
[2] = cited from earlier work; for pMn: [Mn^2+] = [L] = 10 μM at pH = 7.4
[3] = pH-potentiometric titrations, stability constants of the Mn(II) complexes; assay type: physicochemical; conditions: 0.15 M NaCl, 25°C
Procedure: The stability constants of the Mn(II) complexes with PYAN and CHXPYAN defined by eq 2 were also determined through pH-potentiometric titrations. [drawing 2] 2
(§1) The protonation constants of PYAN and CHXPYAN and the stability constants of Mn(II) complexes were determined by pH-potentiometric titrations. The metal-to-ligand concentration ratio was 1:1 (the concentration of the ligand was generally 0.002 M). For the pH measurements and titrations, a Metrohm 888 Titrando titration workstation and Metrohm-6.0234.110 combined electrode was used. Equilibrium measurements were carried out at a constant ionic strength (0.15 M NaCl) in 6 mL samples at 25 °C. The solutions were stirred, and N2 was bubbled through them. The titrations were made in the pH range of 1.7–12.0. KH-phthalate (pH = 4.005) and borax (pH = 9.177) buffers were used to calibrate the pH meter. For the calculation of [H^+] from the measured pH values, the method proposed by Irving et al. was used as follows.[59] A 0.01 M HCl solution was titrated with a standardized NaOH solution at 0.15 M NaCl ionic strength. The differences (A) between the measured (pHread) and calculated pH (−log[H^+]) values were used to obtain the equilibrium H^+ concentration from the pH values measured in the titration experiments (A = 0.04). For the equilibrium calculations, the stoichiometric water ionic product (pKw) was also needed to calculate the [OH^–] values under basic conditions. The VNaOH – pHread data pairs of the HCl–NaOH titration obtained in the pH range of 10.5–12.0 were used to calculate the pKw value (pKw = 13.77). The protonation and stability constants were calculated with the PSEQUAD program.[60]

[4] = pH-potentiometric titrations, ligand protonation constants; assay type: physicochemical; conditions: 0.15 M NaCl, 25°C
Procedure: Chelator protonation constants (log Ki^H) defined by eq 1 were determined using pH-potentiometric titrations, which afforded four protonation constants for each chelator attributed to the protonation of the amine N atoms (Table 2, and standard deviations are shown in parentheses). [drawing 1] 1 where i = 1, 2...4. The first two protonation constants adopt nearly identical values for both chelators, while the third and fourth protonation constants are much lower for CHXPYAN than for PYAN, which is consistent with the results obtained by Jackels et al.[25] The high rigidity of CHXPYAN likely forces the protonated amines to be placed at a shorter distance than in PYAN, reducing the values of log K3^H and log K4^H for the cyclohexyl derivative due to electrostatic effects. […] The structurally related 18-membered macrocycle 18-ane-N6 is characterized by a higher basicity compared with PYAN and CHXPYAN, as expected due to the increased number of amine N atoms and its higher flexibility.[43]
as §1

[5] = Transmetalation (dissociation) kinetics of the Mn(II) complexes with Cu2+; assay type: physicochemical; conditions: 0.15 M NaCl, 25 °C
Procedure: There is a wide consensus among the coordination chemistry community that kinetic inertness is more important for the safe use of metal complexes for imaging applications than thermodynamic stability.[8],[49],[50] Thus, we conducted a detailed investigation of the transmetalation kinetics of the Mn-PYAN and Mn-CHXPYAN complexes, by following their exchange reactions with Cu^2+ in the pH range of 2.5–4.5 (eq 3). [drawing 3] 3
All reactions were carried out in the presence of a large excess of Cu^2+ in order to guarantee the pseudo-first-order kinetic conditions. The transmetalation of Mn-PYAN in the pH range ∼2.0–4.5 is very fast, and thus the rates of the reactions were measured using the stopped-flow technique. Conversely, the exchange reactions of the Mn-CHXPYAN complex are slow and could be studied by using conventional methods. The transmetalation reactions of Mn-PYAN and Mn-CHXPYAN were monitored by following the formation of the corresponding Cu(II) complexes at 295 nm.
The kd values increase upon increase in [H^+] and are independent of the concentration of Cu^2+ as it was found for Mn-PCTA, Mn-PC3AM, and Mn-bispidine complexes.[49],[51] […] The increase in the kd values with increasing H^+ concentration can be interpreted in terms of the extremely slow spontaneous (k0, eq 4) and the proton-assisted (k*[Mn(HL), eq 6) dissociation of Mn(II) complexes. The saturation behavior of the plots of kd versus [H^+] (Figure 5) is characteristic for the equilibrium formation and the accumulation of the *[Mn(HL)] intermediate characterized by the *KH protonation constant (eq 5). The analysis of the rate constants obtained for Mn-CHXPYAN indicates a second-order dependence of kd on [H^+], which can be explained by the proton-assisted dissociation of the *[Mn(HL)] intermediate (k^H*[Mn(HL)], eq 7). [drawing 4] 4 [drawing 5] 5 [drawing 6] 6 [drawing 7] 7
In the presence of excess of the exchanging ion, the transmetalation can be treated as a pseudo-first-order process, and the rate of reactions can be expressed with eq 8, where kd is a pseudo-first-order rate constant and [MnL]t is the total concentration of the complex. [drawing 8] 8
Through consideration of all the possible pathways, the rate of the transmetalation of Mn-PYAN and Mn-CHXPYAN with Cu^2+ can be expressed by eq 9 [drawing 9] 9 Considering the total concentration of the Mn(II) complex ([MnL]t = [MnL] + [*Mn(HL)], as well as the equation defining the protonation constant for the formation of the *[Mn(HL)] intermediate (eq 5) and eq 8, the pseudo-first-order rate constant can be expressed as follows [drawing 10] 10 where k1 = k*[Mn(HL)] × *KH and k2 = k^H*[Mn(HL)] × *KH. The rate and protonation constants characterizing the transmetalation of Mn-PYAN and Mn-CHXPYAN with Cu^2+ have been calculated by fitting the kd values presented in Figure 5 to eq 10 and the values obtained are compared with the corresponding values of Mn-DOTA, Mn-DO3A, Mn-PCTA, Mn-PC3AM^H, and Mn-bispidine in Table 3.
Rates of the metal exchange reactions of Mn-PYAN and Mn-CHXPYAN with Cu^2+ were measured by spectrophotometry by following the formation of the related Cu(II) complexes at 295 nm with an Applied Photophysics DX-17MV stopped-flow instrument and PerkinElmer Lambda 365 UV–vis spectrophotometer using 1.0 cm cells, respectively. The concentration of Mn-PYAN and Mn-CHXPYAN was 1.0 × 10^–4 M, whereas the concentration of Cu^2+ was 10 and 20 times higher in order to guarantee pseudo-first-order conditions. The temperature was maintained at 25 °C and the ionic strength of the solutions was kept constant with 0.15 M NaCl. The exchange rates were studied in the pH range of ca. 2.0–4.5. To keep the pH values constant, monochloroacetic acid (pH range 2.0–3.3), 1,4-dimethylpiperazine (pH range 3.3–4.1), and N-methylpiperazine (pH range 4.1–4.5) buffers were used (0.01 M). […]

[6] = cited from earlier work; remark: listed apart in the source
[7] = mice; cited from earlier work
[8] = Ex vivo biodistribution after PET/CT; assay type: in vivo, mice
Procedure: [^52Mn]Mn-CHXPYAN and [^52Mn]Mn-PYAN radiocomplexes were evaluated in vivo through 90 min dynamic PET/CT imaging of heathy mice followed by an ex vivo biodistribution analysis. Similarly, [^52Mn]MnCl2 was also studied as a control.
[^52Mn]Mn-CHXPYAN and [^52Mn]Mn-PYAN were synthesized with molar specific activities of 80 and 60 MBq/μmol, respectively. 1.04 ± 0.07 MBq (28 ± 2 μCi) of the radiocomplexes in 100 μL injection doses was prepared. The mice (n = 4 per group) were anesthetized with 2.5% isoflurane in oxygen and were injected via the retroorbital sinus. For comparison purposes, 1.04 ± 0.07 MBq (28 ± 2 μCi) of [^52Mn]MnCl2, pH 7 was also injected. After injection, mice were imaged on a Sofie GNEXT PET/CT scanner for a 90 min dynamic scan (9 frames of 10 min each) followed by a 3 min CT at 80 kVp for anatomical reference. PET images were reconstructed via 3D-OSEM (Ordered Subset Expectation Maximization) algorithm (24 subsets and 3 iterations), with random, attenuation, and decay correction, and CT was reconstructed with the modified Feldkamp algorithm and analyzed using VivoQuant 4.0 (Invicro Imaging Service and Software, Boston MA) software. After imaging, mice were euthanized, and organs were collected, weighed, and counted for associated radioactivity on an automated gamma counter. Radioactivity uptake was calculated as the percent injected dose per gram of tissue (% ID/g). Following the reconstruction of the images, ROIs (heart, liver, kidneys, muscle, and bone) were hand-drawn to determine the SUVs using the VivoQuant imaging software.

[9] = Mn(II) complex, 0.15 M NaCl, 25 °C
[10] = Mn(II) complex, 0.1 M Me4NCl, 25 °C
[11] = healthy mice, 1.5 h postinjection, mean ± SD, n = 4

C1CNCCNCCNCCNCCNCCN1 [18-ane-N6, 1,4,7,10,13,16-Hexa-Azacyclo-Octadecane, reference compound]
log K1^H ([1]; 0.2 M NaClO4, 25°C): 10.19 | log K2^H ([1]; 0.2 M NaClO4, 25°C): 9.23 | log K3^H ([1]; 0.2 M NaClO4, 25°C): 8.73 | log K4^H ([1]; 0.2 M NaClO4, 25°C): 4.09 | log K5^H ([1]; 0.2 M NaClO4, 25°C): 2 | log K6^H ([1]; 0.2 M NaClO4, 25°C): <1 | log KMnL ([2]; 0.2 M NaClO4, 25°C): 10.5 | pMn ([2]; 0.2 M NaClO4): 5.05

c1cc2nc(c1)CN[C@@H]1CCCC[C@H]1NCc1cccc(n1)CN[C@@H]1CCCC[C@H]1NC2 [CHXPYAN, (4^1R,4^2R,10^1R,10^2R)-3,5,9,11-tetraaza-1,7(2,6)-dipyridina-4,10(1,2)-dicyclohexanacyclododecaphane]
pMn ([3]; pMn = −log[Mn]free when [Mn^2+] = [L] = 10 μM at pH = 7.4): 7.41 | log KMnL ([3]; stability constant of the Mn(II) complex): 12.51(3) | log K1^H ([1]; 0.2 M KNO3): 9.25 | log K2^H ([1]; 0.2 M KNO3): 8.57 | log K3^H ([1]; 0.2 M KNO3): 4.75 | log K4^H ([1]; 0.2 M KNO3): 4.03 | log K1^H [4]: 9.16(2) | log K2^H [4]: 8.27(2) | log K3^H [4]: 4.55(2) | log K4^H [4]: 2.54(3) | k1 ([5]; Mn(II) complex of the chelator): 0.23 ± 0.03 M^–1 s^–1 | k2 ([5]; Mn(II) complex of the chelator): (6.4 ± 0.8) × 10^3 M^–2 s^–1 | kd at pH = 7.4 ([5]; Mn(II) complex of the chelator): 9.0 × 10^–9 s^–1 | log*KH ([5]; protonation constant of the *[Mn(HL)] intermediate): 3.33 (5) | log KMnL ([2]; 0.2 M KNO3): ~13

O=C(O)CN1CCNCCN(CC(=O)O)CCN(CC(=O)O)CC1 [DO3A^3–, 1,4,7,10-tetraazacyclododecane-1,4,7-triacetate]
k1 [6, 9]: 0.45 M^–1 s^–1 | k2 [6, 9]: 3.2 × 10^2 M^–2 s^–1 | kd at pH = 7.4 [6, 9]: 1.8 × 10^–8 s^–1

O=C(O)CN1CCN(CC(=O)O)CCN(CC(=O)O)CCN(CC(=O)O)CC1 [DOTA^4–, 1,4,7,10-tetraazacyclododecane-1,4,7,10-tetraacetate]
k0 ([6]; Mn(II) complex of the chelator, 0.1 M Me4NCl, 25 °C): 1.8 × 10^–7 s^–1 | kd at pH = 7.4 ([6]; Mn(II) complex, 0.1 M Me4NCl, 25 °C, calculated using a Zn^2+ concentration of 10^–5 M): 1.8 × 10^–7 ^a s^–1 | k1 [6, 10]: 4.0 × 10^–2 M^–1 s^–1 | k2 [6, 10]: 1.6 × 10^3 M^–2 s^–1 | k3^Zn [6, 10]: 1.5 × 10^–5 M^–1 s^–1 | log*KH [6, 10]: 4.26

O=C(O)CN(CCN(CC(=O)O)CC(=O)O)CCN(CC(=O)O)CC(=O)O [DTPA^5–, diethylenetriamine-N,N,N′,N″,N″-pentaacetate, reference compound]
log K1^H ([1]; 0.15 M NaCl, 25°C): 9.97 | log K2^H ([1]; 0.15 M NaCl, 25°C): 8.40 | log K3^H ([1]; 0.15 M NaCl, 25°C): 4.18 | log K4^H ([1]; 0.15 M NaCl, 25°C): 2.68 | log K5^H ([1]; 0.15 M NaCl, 25°C): 2.01 | log K6^H ([1]; 0.15 M NaCl, 25°C): 1.36 | log KMnL ([2]; 0.15 M NaCl, 25°C): 14.54 | pMn ([2]; 0.15 M NaCl): 7.95

O=C([O-])CN(CCN(CC(=O)[O-])CC(=O)[O-])CCN(CC(=O)[O-])CC(=O)[O-].[Mn+2] [Mn-DTPA]
time at which complex dissociation in the presence of Cu^2+ is complete (dead time of the stopped-flow technique) [6]: ≤ 2 ms

NC(=O)CN1CCN(CC(N)=O)Cc2cccc(n2)CN(CC(N)=O)CC1 [PC3AM^H]
k1 [6, 9]: 1.7 × 10^–2 M^–1 s^–1 | kd at pH = 7.4 [6, 9]: 4.3 × 10^–10 s^–1

[52Mn+2].[Cl-].[Cl-] [[^52Mn]MnCl2, reference compound]
uptake, heart [7]: 16.01 ± 0.1 % ID/g | uptake, kidney [7]: 29.9 ± 9.6 % ID/g | uptake, liver [7]: 9.6 ± 1.9 % ID/g | uptake, pancreas [7]: 4.1 ± 1.1 % ID/g | uptake, spleen [7]: 4.2 ± 0.6 % ID/g | Biodistribution, Blood [8, 11]: 0.60 ± 0.11 % ID/g | Biodistribution, Brain [8, 11]: 0.54 ± 0.26 % ID/g | Biodistribution, Fat [8, 11]: 1.12 ± 0.53 % ID/g | Biodistribution, Femur [8, 11]: 2.42 ± 0.36 % ID/g | Biodistribution, Heart [8, 11]: 12.14 ± 7.31 % ID/g | Biodistribution, Kidney [8, 11]: 38.14 ± 6.06 % ID/g | Biodistribution, Liver [8, 11]: 13.00 ± 6.07 % ID/g | Biodistribution, Muscle [8, 11]: 0.25 ± 0.13 % ID/g | Biodistribution, Skin [8, 11]: 0.31 ± 0.11 % ID/g | Biodistribution, Spleen [8, 11]: 4.83 ± 2.04 % ID/g | Biodistribution, Stomach [8, 11]: 4.78 ± 3.02 % ID/g | Biodistribution, L. Intestine ([8]; mouse, in vivo, 1.5 h): 6.48 ± 1.56 % ID/g | Biodistribution, S. Intestine ([8]; mouse, in vivo, 1.5 h): 14.23 ± 5.70 % ID/g
